Data reported in US12606541B2, “PPARg modulators and methods of use” (Eisai R&D Management Co., Ltd., priority 2020, dated 2026).

Each compound was assayed against T1, His6-TEV-PPARγ-(234-505) (Homo sapiens, UniProt P37231) (assay: TR-FRET Assay to Measure Co-R Peptide Recruitment to PPARγ). Conditions: Co-R peptide recruitment to PPARγ; read-out: TR-FRET AC50.
T1 construct: The His6-TEV-PPARγ-(234-505) protein for assay was expressed and purified; TEV cleavage site (N); made in house
T1 sequence (P37231 234-505): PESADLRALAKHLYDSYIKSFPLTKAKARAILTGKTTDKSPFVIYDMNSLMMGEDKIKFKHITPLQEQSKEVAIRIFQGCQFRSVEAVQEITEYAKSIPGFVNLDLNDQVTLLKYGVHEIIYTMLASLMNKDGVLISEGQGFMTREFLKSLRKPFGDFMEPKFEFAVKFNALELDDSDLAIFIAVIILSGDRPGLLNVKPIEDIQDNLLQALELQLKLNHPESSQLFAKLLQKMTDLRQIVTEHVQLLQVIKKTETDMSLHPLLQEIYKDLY
Format: biochemical
How it was run: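 His-tagged PPARγ (or controls) was preincubated with compound for 20 minutes at room temperature, then 5 nM anti-His terbium antibody and 200 nM FITC-labeled SMRT-ID2 corepressor peptide (final) were added for a further hour. TR-FRET signal was normalized to percent response using 500 nM T0070907 and DMSO controls.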
With O=C(N[C@@H]1CCN(Cc2ccccc2)C1)C1CCN(C(=O)c2cc(-c3ccncc3)[nH]n2)CC1 [N-[(3R)-1-benzylpyrrolidin-3-yl]-1-[5-(pyridin-4-yl)-1H-pyrazole-3-carbonyl]piperidine-4-carboxamide] the AC50 was > 1000 nM. For O=C(N[C@H]1CCN(Cc2ccccc2)C1)C1CCN(C(=O)c2cc(-c3cccnc3)[nH]n2)CC1 [N-[(3S)-1-benzylpyrrolidin-3-yl]-1-[5-(pyridin-3-yl)-1H-pyrazole-3-carbonyl]piperidine-4-carboxamide], the AC50 was > 1000 nM. Cc1nc(CNC(=O)C2CCN(C(=O)c3cc(-c4ccncc4)[nH]n3)CC2)sc1C [N-[(4,5-dimethyl-1,3-thiazol-2-yl)methyl]-1-[5-(pyridin-4-yl)-1H-pyrazole-3-carbonyl]piperidine-4-carboxamide] was tested, and the AC50 was > 1000 nM. For Cc1cc(CNC(=O)C2CCN(C(=O)c3cc(-c4ccncc4)[nH]n3)CC2)sc1C [N-[(4,5-dimethylthiophen-2-yl)methyl]-1-[5-(pyridin-4-yl)-1H-pyrazole-3-carbonyl]piperidine-4-carboxamide], the AC50 was > 1000 nM. With COc1cc(Cl)ccc1CNC(=O)C1CCN(C(=O)c2cc(-c3ccncc3)[nH]n2)CC1 [N-[(4-chloro-2-methoxyphenyl)methyl]-1-[5-(pyridin-4-yl)-1H-pyrazole-3-carbonyl]piperidine-4-carboxamide] the AC50 was > 1000 nM. With O=C(NCc1ccc(Cl)cc1)C1CCN(C(=O)c2cc(-c3cccnc3)[nH]n2)CC1 [N-[(4-chlorophenyl)methyl]-1-[5-(pyridin-3-yl)-1H-pyrazole-3-carbonyl]piperidine-4-carboxamide] the AC50 was > 1000 nM. In the case of O=C(NCc1ccc(Cl)cc1)C1CCN(C(=O)c2cc(-c3ccncc3)[nH]n2)CC1 [N-[(4-chlorophenyl)methyl]-1-[5-(pyridin-4-yl)-1H-pyrazole-3-carbonyl]piperidine-4-carboxamide], the AC50 is reported as > 1000 nM. O=C(NCc1nc(C2CC2)cs1)C1CCN(C(=O)c2cc(-c3ccncc3)[nH]n2)CC1 [N-[(4-cyclopropyl-1,3-thiazol-2-yl)methyl]-1-[5-(pyridin-4-yl)-1H-pyrazole-3-carbonyl]piperidine-4-carboxamide] was tested, and the AC50 was > 1000 nM. For CCc1csc(CNC(=O)C2CCN(C(=O)c3cc(-c4ccncc4)[nH]n3)CC2)n1 [N-[(4-ethyl-1,3-thiazol-2-yl)methyl]-1-[5-(pyridin-4-yl)-1H-pyrazole-3-carbonyl]piperidine-4-carboxamide], the AC50 was > 1000 nM. COc1ccc(CNC(=O)C2CCN(C(=O)c3cc(-c4ccncc4)[nH]n3)CC2)cc1 [N-[(4-methoxyphenyl)methyl]-1-[5-(pyridin-4-yl)-1H-pyrazole-3-carbonyl]piperidine-4-carboxamide] was tested, and the AC50 was > 1000 nM. With Cc1csc(CNC(=O)C2CCN(C(=O)c3cc(-c4ccncc4)[nH]n3)CC2)n1 [N-[(4-methyl-1,3-thiazol-2-yl)methyl]-1-[5-(pyridin-4-yl)-1H-pyrazole-3-carbonyl]piperidine-4-carboxamide] the AC50 was > 1000 nM. With Cc1csc(CNC(=O)C2CCN(C(=O)c3cc(-c4ccncc4)[nH]n3)CC2)c1 [N-[(4-methylthiophen-2-yl)methyl]-1-[5-(pyridin-4-yl)-1H-pyrazole-3-carbonyl]piperidine-4-carboxamide] the AC50 was > 1000 nM. For CC(C)(C)c1csc(CNC(=O)C2CCN(C(=O)c3cc(-c4ccncc4)[nH]n3)CC2)n1 [N-[(4-tert-butyl-1,3-thiazol-2-yl)methyl]-1-[5-(pyridin-4-yl)-1H-pyrazole-3-carbonyl]piperidine-4-carboxamide], the AC50 was > 1000 nM. For CC(C)(C)c1ccc(CNC(=O)C2CCN(C(=O)c3cc(-c4ccncc4)[nH]n3)CC2)cc1 [N-[(4-tert-butylphenyl)methyl]-1-[5-(pyridin-4-yl)-1H-pyrazole-3-carbonyl]piperidine-4-carboxamide], the AC50 was > 1000 nM. In the case of CN(Cc1ccc(C(C)(C)C)cc1)C(=O)C1CCN(C(=O)c2cc(-c3ccncc3)[nH]n2)CC1 [N-[(4-tert-butylphenyl)methyl]-N-methyl-1-[5-(pyridin-4-yl)-1H-pyrazole-3-carbonyl]piperidine-4-carboxamide], the AC50 is reported as > 1000 nM. For Cc1cc(CNC(=O)C2CCN(C(=O)c3cc(-c4ccncc4)[nH]n3)CC2)cnc1C [N-[(5,6-dimethylpyridin-3-yl)methyl]-1-[5-(pyridin-4-yl)-1H-pyrazole-3-carbonyl]piperidine-4-carboxamide], the AC50 was > 1000 nM. In the case of COc1ccc(Cl)cc1CNC(=O)C1CCN(C(=O)c2cc(-c3ccncc3)[nH]n2)CC1 [N-[(5-chloro-2-methoxyphenyl)methyl]-1-[5-(pyridin-4-yl)-1H-pyrazole-3-carbonyl]piperidine-4-carboxamide], the AC50 is reported as > 1000 nM. With Cc1nc(CNC(=O)C2CCN(C(=O)c3cc(-c4ccncc4)[nH]n3)CC2)no1 [N-[(5-methyl-1,2,4-oxadiazol-3-yl)methyl]-1-[5-(pyridin-4-yl)-1H-pyrazole-3-carbonyl]piperidine-4-carboxamide] the AC50 was > 1000 nM. With CC(C)(C)c1ccc(CNC(=O)C2CCN(C(=O)c3cc(-c4ccncc4)[nH]n3)CC2)cn1 [N-[(6-tert-butylpyridine-3-yl)methyl]1-[5-(pyridin-4-yl)-1H-pyrazole-3-carbonyl]piperidine-4-carboxamide] the AC50 was > 1000 nM. For O=C(NCc1ccccc1)C1CCN(C(=O)c2cc(-c3ccncc3)[nH]n2)CC1 [N-benzyl-1-[5-(pyridin-4-yl)-1H-pyrazole-3-carbonyl]piperidine-4-carboxamide], the AC50 was > 1000 nM. In the case of CN(Cc1ccccc1)C(=O)C1CCN(C(=O)c2cc(-c3ccncc3)[nH]n2)CC1 [N-benzyl-N-methyl-1-[5-(pyridin-4-yl)-1H-pyrazole-3-carbonyl]piperidine-4-carboxamide], the AC50 is reported as > 1000 nM. In the case of O=C(NC1CCCCC1)C1CCN(C(=O)c2cc(-c3ccncc3)[nH]n2)CC1 [N-cyclohexyl-1-[5-(pyridin-4-yl)-1H-pyrazole-3-carbonyl]piperidine-4-carboxamide], the AC50 is reported as > 1000 nM. With O=C(NC1CCCC1)C1CCN(C(=O)c2cc(-c3ccncc3)[nH]n2)CC1 [N-cyclopentyl-1-[5-(pyridin-4-yl)-1H-pyrazole-3-carbonyl]piperidine-4-carboxamide] the AC50 was > 1000 nM. With O=C(NC1CC1)C1CCCN(C(=O)c2cc(-c3ccncc3)[nH]n2)C1 (stereo not shown) [N-cyclopropyl-1-[5-(pyridin-4-yl)-1H-pyrazole-3-carbonyl]piperidine-3-carboxamide] the AC50 was > 1000 nM. In the case of O=C(NC1CC1)C1CCN(C(=O)c2cc(-c3ccncc3)[nH]n2)CC1 [N-cyclopropyl-1-[5-(pyridin-4-yl)-1H-pyrazole-3-carbonyl]piperidine-4-carboxamide], the AC50 is reported as > 1000 nM. CCNC(=O)C1CCN(C(=O)c2cc(-c3ccncc3)[nH]n2)CC1 [N-ethyl-1-[5-(pyridin-4-yl)-1H-pyrazole-3-carbonyl]piperidine-4-carboxamide] was tested, and the AC50 was > 1000 nM. With CNC(=O)CN1CCN(C(=O)C2CCN(C(=O)c3cc(-c4ccncc4)[nH]n3)CC2)CC1 [N-methyl-2-(4-{1-[5-(pyridin-4-yl)-1H-pyrazole-3-carbonyl]piperidine-4-carbonyl}piperazin-1-yl)acetamide] the AC50 was > 1000 nM. With CN1CCC(N(C)C(=O)C2CCN(C(=O)c3cc(-c4ccncc4)[nH]n3)CC2)CC1 [N-methyl-N-(1-methylpiperidin-4-yl)-1-[5-(pyridin-4-yl)-1H-pyrazole-3-carbonyl]piperidine-4-carboxamide] the AC50 was > 1000 nM.
